Key:
U87 cells = experiment: Cell growth assay (CCK-8), U87; type: cell-based, human; settings: n=6
Procedure: Cell growth was quantified using the Cell Counting Kit‐8 Assay Kit (Bimake, Houston, TX). Each experiment was repeated at least six times. For the colony formation assay, 800 cells were seeded into each well of a six‐well plate with soft agar (Agarose; Sigma, St. Louis, MO) and maintained in a medium containing 10% FBS for 14 days. The colonies were fixed with methanol and stained with 0.1% crystal violet; the clones containing at least 50 cells were counted using an inverted microscope.
Supplementary Fig. 9 C16 inhibits tumor growth and promotes chemosensitivity in vitro.
B. Colony formation of cells treated with SC or C16 (left) and the accompanying statistical
analysis (right; n=6, Student’s t-test, **P < 0.01).
C. Annexin V staining flow cytometry assay of cells simultaneously treated with Dox with SC or
C16 for 48 h (n=3, Student’s t-test, *P < 0.05, **P < 0.01).
(1 picture or pasted object on this page, not shown here)

STAT3/DNMT1 interaction [1] = experiment: IP assay: endogenous STAT3/DNMT1 interaction in U87 cells; type: cell-based, human; settings: C16 for 2 h, n = 3, p < 0.01
Procedure: (§1) Figure 7 Peptide derived from the STAT3‐binding sites of SHF is an effective GBM suppressive strategy. A) Binding model between SHF and STAT3 using ZDOCK server. […] B) IF staining determined the cell penetrability and nuclear‐localization of C16. U251 cells were incubated with C16 or SC for 2 h and performed IF staining using the indicated antibodies. Bars, 10 µm. C) The statical analysis of adsorption equilibrium assay detecting the binding of C16 and SC with recombinant STAT3. D) Pull‐down assay indicating C16 binds STAT3. GST‐STAT3 was incubated with C16 or SC for 2 h, and the pull‐down assay was performed using Anti‐His magnetic beads. E) IP assay showing the effect of C16 on STAT3 dimerization. 293T cells transfected with indicated vectors were incubated with C16 for 2 h. The relative quantification of STAT3 dimerization was listed. F) IP assay detecting the effect of C16 on the interaction of STAT3 and DNMT1. […] The relative quantification of STAT3/DNMT1 interaction was listed. […] The relative quantification of STAT3/DNMT1 interaction was listed. […] Positive cells were quantified 20 randomly selected fields per mouse (n = 6, Student's t‐test, **p < 0.01). […]
(§2) Immunoprecipitation (IP) experiments were performed to analyze the protein interactions. […] Precipitated products were analyzed by Western blot using the specified antibodies. […]

STAT3/DNMT1 interaction [2] = experiment: IP assay: ectopic STAT3/DNMT1 interaction in 293T cells; type: cell-based, human; settings: 293T cells expressing ectopic STAT3 and DNMT1, C16 for 2 h
Procedure: as §1, §2

GST-STAT3 = experiment: Pull-down assay, GST-STAT3 with peptide; type: binding; settings: GST-STAT3 incubated with C16 or SC for 2 h; Anti-His magnetic beads
Procedure: as §1, §2

Q: Which cell growth inhibition (U87 cells) does the source give for “C16: peptide spanning SHF amino acids 388–421, palmitic acid at the N-terminus, amidated C-terminus, 3× His tags added to the C-terminal (PFSSVPEIVHHYASRKLPIKGAEHMSLLYPVAIR; palmitic acid at the N-terminus; amidated C-terminus; left off: 3× His tags, C-terminal, kept)” here?
A: inhibited cell growth with concentration dependence

Q: And the “endogenous STAT3/DNMT1 interaction” value (STAT3/DNMT1 interaction [1])?
A: decrease

Q: What about the “ectopic STAT3/DNMT1 interaction” value (STAT3/DNMT1 interaction [2]) of the same substance?
A: decrease

Q: What about the “STAT3 binding in pull-down / in vitro IP” value (GST-STAT3) of the same substance?
A: contains the STAT3 binding capacity
